Patent US20220098196A1, “TRAPPING-FREE PARP INHIBITORS” (The Board of Regents of the University of Texas System, priority 2019, published 2022)
Where a SMILES comes first, the peptide text is derived from it. The star is where a group is joined. Cbz = O=C(OCc1ccccc1)*

What was measured:
[1] = biological target: T1, PARP1 (Homo sapiens, UniProt P09874); assay: PARP1 degradation in HeLa cells (immunoblotting); format: cell-based; parameters: host or cells: HeLa; conditions: 24 hours; for effect on iRucaparib-induced PARP1 degradation: iRucaparib 5 μM plus MG132 (1 μM), Rucaparib (1 μM) or increasing pomalidomide; for PARP1 degradation: increasing concentrations
Protocol: (§1) Immunoblotting. Cells were washed once with cold PBS and lysed with the SDS lysis buffer (1% SDS, 10 mM HEPES pH 7.0, 2 mM MgCl2, 500 U universal nuclease). Protein concentrations were determined by the BCA assay kit (Thermo Fisher Scientific). A total of 20 μg proteins (40 μg proteins for PAR immunoblotting experiments) were loaded onto the SDS-PAGE gel and were then transferred to a nitrocellulose membrane. Nitrocellulose membranes were then blocked with the TBST buffer containing 5% milk (Bio-Rad). Membranes were incubated with the primary antibodies overnight at 4° C. and the secondary antibodies for 1 hour at room temperature (RT). The blots were developed using enhanced chemiluminescence and were exposed on autoradiograph films.

[2] = biological target: T1, PARP1; assay: PARP1 degradation in VHL-proficient (BT-549, PC-3) and VHL-deficient (786-O) cells (immunoblotting); format: cell-based; parameters: host or cells: MDA-MB-468; BT-549; PC-3; 786-O; conditions: 24 hours
Protocol: as §1

[3] = biological target: T1, PARP1; assay: PARP1 trapping in HeLa cells (subcellular fractionation, chromatin-bound fraction); format: cell-based; parameters: host or cells: HeLa; conditions: 5 μM for all compounds, MMS 0.01%
Protocol: Subcellular Proteins Extraction. […] The cytosolic proteins were isolated by incubating the cells with the CEB buffer for 10 min at 4° C., and centrifuged at 500 g for 5 min. The membrane proteins were isolated by incubating the pellet from previous step with the MEB buffer for 10 min at 4° C., and centrifuged at 3000 g for 5 min. The soluble nuclear proteins were isolated by incubating the pellet from previous step with the NEB buffer for 30 min at 4° C., and centrifuged at 5000 g for 5 min. The chromatin bound proteins were isolated by incubating the pellet from previous step with the NEB buffer supplemented with nuclease for 15 min at RT and centrifuged at 16000 g for 5 min. Protein concentrations were determined by the BCA assay kit.

[4] = biological target: T1, PARP1; assay: TMT quantitative proteomics in BT-549 cells, PARP1; format: cell-based; conditions: iRucaparib 5 μM or VHL-Rucaparib 20 μM, 24 hours, 8,207 quantified proteins
Source text: Quantitative Mass Spectrometry.
Proteins were then extracted using methanol-chloroform precipitation.
The maximum intensity of each reporter ion was extracted.

[5] = biological target: ZFP91 (Homo sapiens, UniProt Q96JP5+Q96SW2); assay: TMT quantitative proteomics in BT-549 cells, ZFP91; format: cell-based; parameters: host or cells: HeLa; BT-549; conditions: VHL-Rucaparib 20 μM, 24 hours
Protocol: Quantitative Mass Spectrometry. […] Two biological replicate samples were prepared for each treatment condition. Cells were washed with cold PBS and lysed using the SDS lysis buffer. Protein concentrations were determined by the BCA assay (Thermo Fisher Scientific). For each sample, 500 μg of protein was used for the subsequent TMT experiments^34.
For the TMT experiments, proteins were reduced with 2 mM DTT for 10 min and alkylated with 50 mM iodoacetamide for 30 min in dark. Proteins were then extracted using methanol-chloroform precipitation. Protein pellets were dissolved in 400 μL 8 M Urea buffer (8 M urea, 50 mM Tris-HCl, 10 mM EDTA, pH 7.5) and were digested by Lys-C (Wako, at a 1:100 enzyme/protein ratio) for 2 hours at RT. The urea concentration was then reduced to 2 M using freshly made 100 mM ammonium bicarbonate solution. […]
Samples were desalted and fractioned by bRPLC (basic pH reversed phase HPLC) on a ZORBAX 300 Extend-C18 column (Narrow Bore RR 2.1 mm×100 mm, 3.5 μm particle size, 300 Å pore size). […] Samples were then analyzed on an Orbitrap Elite mass spectrometer (Thermo Fisher Scientific) using a top 15 HCD (higher-energy collisional dissociation) method.
The maximum intensity of each reporter ion was extracted. For each reporter ion channel, the observed signal-to-noise ratio was summed across all quantified proteins and was normalized.

[6] = biological target: T1, PARP1; assay: In Vitro PARP1 Activity Assay (PARP universal chemiluminescent assay kit); format: biochemical; conditions: in vitro
Protocol: In Vitro PARP1 Activity Assay. […] Briefly, the histone-coated strip wells were hydrated with the assay buffer for 30 min. The various compounds were added and were incubated with the PARP enzyme for 10 min. The reaction cocktail containing biotinylated NAD^+ was then added into the system, which was incubated for 1 hour to activate PARP1. After the reaction, the wells were washed twice with 0.1% Triton X-100/PBS and twice with PBS. The wells were incubated with Strep-HRP for another hour and were washed again as described above. PeroxyGlow reagents were mixed and added into the strip wells, and the biotin signal on coated histone was immediately measured with chemiluminescence on a Synergy microplate reader (Bio-Tek). The well without PARP1, and the well with PARP1 only was used as the negative (0%) and positive (100%) control, respectively.

[7] = Phase III, patients taking pomalidomide and dexamethasone vs. dexamethasone alone; p=0.0002; cited from earlier work

T1 sequence (P09874 whole entry): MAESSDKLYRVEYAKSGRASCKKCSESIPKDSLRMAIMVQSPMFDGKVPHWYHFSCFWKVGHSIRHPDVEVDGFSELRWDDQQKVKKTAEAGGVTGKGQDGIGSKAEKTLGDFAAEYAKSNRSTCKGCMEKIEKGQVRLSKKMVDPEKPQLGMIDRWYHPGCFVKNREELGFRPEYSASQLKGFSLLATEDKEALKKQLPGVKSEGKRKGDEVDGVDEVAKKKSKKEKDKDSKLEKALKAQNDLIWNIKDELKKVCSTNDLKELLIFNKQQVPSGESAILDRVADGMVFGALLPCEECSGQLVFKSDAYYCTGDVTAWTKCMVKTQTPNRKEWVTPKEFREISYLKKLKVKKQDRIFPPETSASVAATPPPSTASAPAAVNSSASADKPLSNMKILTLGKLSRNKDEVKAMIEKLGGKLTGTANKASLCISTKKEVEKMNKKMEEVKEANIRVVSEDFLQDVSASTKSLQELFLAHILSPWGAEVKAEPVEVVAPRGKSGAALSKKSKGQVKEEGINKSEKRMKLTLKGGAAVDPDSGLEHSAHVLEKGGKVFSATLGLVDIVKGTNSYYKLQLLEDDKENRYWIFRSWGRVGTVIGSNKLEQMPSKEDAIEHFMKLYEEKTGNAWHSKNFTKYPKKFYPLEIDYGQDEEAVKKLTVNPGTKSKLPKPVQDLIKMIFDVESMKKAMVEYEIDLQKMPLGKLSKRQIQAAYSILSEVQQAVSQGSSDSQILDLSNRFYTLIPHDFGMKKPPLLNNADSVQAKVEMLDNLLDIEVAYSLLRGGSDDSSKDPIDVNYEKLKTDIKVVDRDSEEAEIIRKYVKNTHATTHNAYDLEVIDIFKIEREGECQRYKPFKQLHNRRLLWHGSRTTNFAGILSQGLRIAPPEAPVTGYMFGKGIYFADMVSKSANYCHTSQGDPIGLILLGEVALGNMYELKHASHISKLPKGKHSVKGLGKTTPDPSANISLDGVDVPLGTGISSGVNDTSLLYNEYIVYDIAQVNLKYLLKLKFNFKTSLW
Sequence of ZFP91 (Q16531 2-1140): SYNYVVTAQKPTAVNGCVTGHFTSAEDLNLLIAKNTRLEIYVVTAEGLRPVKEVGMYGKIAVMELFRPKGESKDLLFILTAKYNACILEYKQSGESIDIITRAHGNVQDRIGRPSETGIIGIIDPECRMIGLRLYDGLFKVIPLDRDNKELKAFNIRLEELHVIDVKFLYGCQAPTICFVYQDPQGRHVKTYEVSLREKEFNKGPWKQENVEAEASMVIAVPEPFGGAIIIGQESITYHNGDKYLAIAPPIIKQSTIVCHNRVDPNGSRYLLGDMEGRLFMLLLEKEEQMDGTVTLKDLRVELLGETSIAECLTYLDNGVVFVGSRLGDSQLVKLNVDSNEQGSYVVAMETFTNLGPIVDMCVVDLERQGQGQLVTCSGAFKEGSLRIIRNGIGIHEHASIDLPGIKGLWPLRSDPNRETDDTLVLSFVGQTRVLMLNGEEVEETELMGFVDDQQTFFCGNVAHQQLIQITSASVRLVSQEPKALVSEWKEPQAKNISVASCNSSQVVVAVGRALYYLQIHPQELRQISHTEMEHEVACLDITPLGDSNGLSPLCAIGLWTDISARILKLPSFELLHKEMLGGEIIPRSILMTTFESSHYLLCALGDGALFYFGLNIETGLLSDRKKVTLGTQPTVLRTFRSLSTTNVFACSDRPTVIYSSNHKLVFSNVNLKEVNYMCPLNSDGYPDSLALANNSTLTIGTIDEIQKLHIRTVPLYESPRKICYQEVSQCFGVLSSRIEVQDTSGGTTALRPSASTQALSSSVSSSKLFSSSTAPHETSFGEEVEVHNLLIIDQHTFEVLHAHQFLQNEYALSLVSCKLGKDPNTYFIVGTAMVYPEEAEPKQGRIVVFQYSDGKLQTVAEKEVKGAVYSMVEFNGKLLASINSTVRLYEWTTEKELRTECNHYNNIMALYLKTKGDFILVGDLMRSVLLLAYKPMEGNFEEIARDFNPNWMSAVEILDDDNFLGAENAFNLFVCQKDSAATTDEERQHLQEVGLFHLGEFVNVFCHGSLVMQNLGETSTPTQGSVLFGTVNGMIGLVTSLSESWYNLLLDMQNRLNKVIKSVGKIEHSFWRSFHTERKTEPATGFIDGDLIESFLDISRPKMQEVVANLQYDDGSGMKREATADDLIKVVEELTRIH
Sequence of ZFP91 (Q96SW2 whole entry): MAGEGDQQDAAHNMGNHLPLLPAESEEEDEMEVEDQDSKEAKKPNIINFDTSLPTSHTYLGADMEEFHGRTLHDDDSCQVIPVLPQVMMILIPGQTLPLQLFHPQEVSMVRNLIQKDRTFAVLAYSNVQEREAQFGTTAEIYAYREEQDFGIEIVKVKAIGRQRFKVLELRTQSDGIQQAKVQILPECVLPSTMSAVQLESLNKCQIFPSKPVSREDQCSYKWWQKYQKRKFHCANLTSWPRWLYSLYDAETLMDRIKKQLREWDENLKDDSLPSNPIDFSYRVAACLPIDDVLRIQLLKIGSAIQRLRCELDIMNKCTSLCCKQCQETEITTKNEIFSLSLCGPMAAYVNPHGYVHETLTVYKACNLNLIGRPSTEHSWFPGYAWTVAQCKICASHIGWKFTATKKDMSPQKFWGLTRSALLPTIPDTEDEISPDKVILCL
Sequence of ZFP91 (Q96JP5 2-570): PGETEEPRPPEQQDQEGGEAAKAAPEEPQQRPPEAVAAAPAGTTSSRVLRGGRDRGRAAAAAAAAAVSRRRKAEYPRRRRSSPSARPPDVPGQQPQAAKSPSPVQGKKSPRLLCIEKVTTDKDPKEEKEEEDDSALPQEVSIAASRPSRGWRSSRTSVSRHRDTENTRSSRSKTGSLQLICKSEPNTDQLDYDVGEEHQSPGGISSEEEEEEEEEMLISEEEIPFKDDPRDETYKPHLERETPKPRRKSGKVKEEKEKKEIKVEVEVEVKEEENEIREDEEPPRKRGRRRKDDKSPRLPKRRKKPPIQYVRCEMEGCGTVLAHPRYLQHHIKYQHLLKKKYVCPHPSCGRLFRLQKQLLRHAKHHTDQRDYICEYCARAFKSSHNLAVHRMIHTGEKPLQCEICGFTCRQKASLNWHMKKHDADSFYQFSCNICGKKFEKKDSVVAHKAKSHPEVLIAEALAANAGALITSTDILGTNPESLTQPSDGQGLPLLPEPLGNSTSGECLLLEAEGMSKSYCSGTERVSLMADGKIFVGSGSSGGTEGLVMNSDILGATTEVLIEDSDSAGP

Q: For `CC(C)C[C@@H](C=O)NC(=O)[C@H](CC(C)C)NC(=O)[C@H](CC(C)C)NC(=O)OCc1ccccc1` [MG132, reference compound] (Cbz-Leu-Leu-Leu-aldehyde), which “effect on iRucaparib-induced PARP1 degradation” value [1] is on record?
A: Its value is “completely blocked”.

Q: And the “effect on VHL-Rucaparib-induced PARP1 degradation” value ([2]; PC-3 cells, VHL-Rucaparib 10 μM plus MG-132 1 μM)?
A: Its value is “could be rescued by MG-132 treatment”.

Q: For `NC(=O)c1cccc2cn(-c3ccc([C@@H]4CCCNC4)cc3)nc12` [Niraparib], which “potency in PARP1 trapping (rank order)” value [3] is on record?
A: Its value is “BMN673>Niraparib>Olaparib>Rucaparib>Veliparib”.

Q: With `CN(CCCCc1cn(CCOCCOCCOCCOCCNc2cccc3c2C(=O)N(C2CCC(=O)NC2=O)C3=O)nn1)Cc1ccc(-c2[nH]c3cc(F)cc4c3c2CCNC4=O)cc1` (centres unmarked) [PEG4 PROTAC, Rucaparib-Triazole-PEG4-Pomalidomide] as the compound, how does the PARP1 degradation [1] read?
A: The PARP1 degradation was “able to degrade PARP1 as efficiently as iRucaparib”.

Q: With `Cc1ncsc1-c1ccc(CNC(=O)[C@@H]2C[C@@H](O)CN2C(=O)[C@@H](NC(=O)CCOCCOCCOCCOCCn2cc(CCCCN(C)Cc3ccc(-c4[nH]c5cc(F)cc6c5c4CCNC6=O)cc3)nn2)C(C)(C)C)cc1` [VHL-Rucaparib, Rucaparib-Triazole-PEG4-VHL-Ligand] as the compound, how does the PARP1 downregulation [4] read?
A: The PARP1 downregulation was “one of the most significantly downregulated proteins”.

Q: What about the ZFP91 abundance change [5] of the same compound?
A: The ZFP91 abundance change was “did not show any changes”.

Q: And the PARP1 degradation ([2]; BT549 cells, iRucaparib 5 μM or VHL-Rucaparib 20 μM)?
A: The PARP1 degradation was “robust PARP1 degradation”.

Q: And the PARP1 level ([2]; BT-549 cells (VHL-proficient))?
A: The PARP1 level was “successfully downregulated”.

Q: What about the PARP1 level ([2]; PC-3 cells (VHL-proficient), 10 μM) of the same compound?
A: The PARP1 level was “successfully downregulated”.

Q: With `CN(CCCCc1cn(CCOCCNc2cccc3c2C(=O)N(C2CCC(=O)NC2=O)C3=O)nn1)Cc1ccc(-c2[nH]c3cc(F)cc4c3c2CCNC4=O)cc1` (centres unmarked) [PEG1, Rucaparib-Triazole-PEG1-Pomalidomide] as the compound, how does the “biochemical (catalytic) inhibition of PARP1” value [6] read?
A: The value was “maintained catalytic inhibitory activity against PARP1”.

Q: And the PARP1 degradation [1]?
A: Its PARP1 degradation is “not able to degrade PARP1”.

Q: For `Nc1cccc2c1C(=O)N(C1CCC(=O)NC1=O)C2=O` (centres unmarked) [pomalidomide, reference compound], which “overall survival (median)” value [7] is on record?
A: Its value is 11.9 months.

Q: What about the “effect on PARP1 protein levels” value ([1]; 5 μM) of the same compound?
A: Its value is “had no effect on PARP1 protein levels”.

Q: And the “effect on iRucaparib-induced PARP1 degradation” value [1]?
A: Its value is “block PARP1 degradation”.

Q: Which “biochemical (catalytic) inhibition of PARP1” value [6] does the source give for `CN(CCCCc1cn(CCOCCOCCNc2cccc3c2C(=O)N(C2CCC(=O)NC2=O)C3=O)nn1)Cc1ccc(-c2[nH]c3cc(F)cc4c3c2CCNC4=O)cc1` (centres unmarked) [PEG2, Rucaparib-Triazole-PEG2-Pomalidomide] here?
A: The value was “maintained catalytic inhibitory activity against PARP1”.

Q: What about the PARP1 degradation [1] of the same compound?
A: Its PARP1 degradation is “not able to degrade PARP1”.

Q: Which “potency in PARP1 trapping (rank order)” value [3] does the source give for `C[C@]1(c2nc3c(C(N)=O)cccc3[nH]2)CCCN1` [Veliparib] here?
A: Its value is “BMN673>Niraparib>Olaparib>Rucaparib>Veliparib”.
